Read-outs that look alike come from different tables or passages of the source.
Assays:
human MAO-B enzyme [1] = biological target: T1, human MAO-B enzyme (Homo sapiens (Human), UniProt P27338); test: Screening of MAO-B activity inhibition (Amplex Red monoamine oxidase assay kit, benzylamine substrate); format: biochemical; details: 10 uM of the synthesized compound, pargyline-corrected
Experimental: A stock solution was prepared using a human MAO-B enzyme (purchased from Aldrich) and a Amplex® Red monoamine oxidase assay kit according to a preparation manual. The kit includes a 5× reaction buffer, an Amplex® red reagent (1 mg), HRP, DMSO, H2O2, p-tyramine (substrate of MAO-A, B), benzylamine (substrate of MAO-B), clorgiline (inhibitor of MAO-A), and pargyline (inhibitor of MAO-B). Among these reagents in the kit, benzylamine was used as a substrate for MAO-B, and pargyline was used as an MAO-B inhibitor. A solution as overall substrates was prepared as follows. 200 ul of a solution of 1 mg of Amplex® red sufficiently dissolved in 200 ul of DMSO, 100 ul of a mixed solution of HRP and 1 ml of a 1× buffer, 200 ul of a solution of benzylamine dissolved in 1.2 ml of dH2O were added to 9.5 ml of a 1× buffer to reach a total volume of 10 mL, which is sufficient for 100 wells. 0.5 ul of a mixture of MAO-B inhibitor pargyline and 1 ml of dH2O was put into each well. First, the activity of MAO-B was determined using 10 uM of the synthesized compound.
96 wells were injected with positive and negative types, and the wile type. The positive type included only substrate and hydrogen peroxide, and the negative type included only substrate. For the wild type, corresponding wells were injected with the enzyme, substrate, and MAO-B inhibitor, but with no synthesized compound. Afterward, 2 ul of the synthesized compound (1 mM) was added into each well, and the human MAO-B enzyme was put only into the 1st row of wells. 0.5 ug of the human MAO-B was put into each well along with 100 ul of a 1× buffer. The human MAO-B enzyme was put into the 2nd row of the wells along with 0.5 ul of a pargyline, the MAO-B inhibitor. To reduce an experimental error for accuracy, the test was repeated three times for each compound. After 30 minutes, 100 ul of the substrate solution was added into each well in a darkroom. The test was performed in the darkroom due to light sensitivity of the Amplex® reagent. Finally, a total volume of the reaction solution per well reached 200 ul. After about 2 to 3 hours, chromophoric degrees of the samples were measured. A variation in data values for the 1st and 2nd rows of the wells indicates the pure reaction activity of the MAO-B enzyme with the substrate. Using the samples with the synthesized compound the remaining activity of MAO-B after inhibited by the synthesized compound may be determined. This is because the activities of the other enzymes excluding the MAO-B enzyme may be excluded through this method. Compounds with high inhibitory activity at a concentration of 10 uM were screened from among the synthesized compounds at a compound concentration of 10 uM.

human MAO-B enzyme [2] = biological target: T1, human MAO-B enzyme; test: as above; format: biochemical
[3] = activity assay at 0.001, 0.01, 0.1, 1 and 10 uM

T1 sequence (P27338 whole entry): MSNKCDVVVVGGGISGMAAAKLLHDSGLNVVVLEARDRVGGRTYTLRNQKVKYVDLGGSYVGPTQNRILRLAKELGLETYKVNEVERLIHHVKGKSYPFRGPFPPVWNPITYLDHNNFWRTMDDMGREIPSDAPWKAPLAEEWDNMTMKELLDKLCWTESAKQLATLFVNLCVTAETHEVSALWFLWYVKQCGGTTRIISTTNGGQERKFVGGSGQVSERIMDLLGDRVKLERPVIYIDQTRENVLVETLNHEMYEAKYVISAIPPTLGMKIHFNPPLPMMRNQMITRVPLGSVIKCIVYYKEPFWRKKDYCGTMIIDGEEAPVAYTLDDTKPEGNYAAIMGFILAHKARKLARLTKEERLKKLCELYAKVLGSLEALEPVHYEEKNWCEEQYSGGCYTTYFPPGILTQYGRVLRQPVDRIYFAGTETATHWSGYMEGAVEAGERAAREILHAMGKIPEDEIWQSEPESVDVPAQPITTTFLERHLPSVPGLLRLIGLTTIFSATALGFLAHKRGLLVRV

| Compound | Remaining activity of MAO-B (%) (human MAO-B enzyme [1]) | IC50 (human MAO-B enzyme [2]; [3]) [µM] | IC50 (human MAO-B enzyme [2]) [µM] |
| --- | --- | --- | --- |
| CN(Cc1ccccc1)c1ccc2nc(-c3cccc(Cl)c3)oc2n1 [Example 5-67, N-benzyl-2-(3-chlorophenyl)-N-methyloxazolo[5,4-b]pyridine-5-amine] | 47.3 | 68.2 | – |
| Clc1ccccc1-c1nc2ccc(N3CCCCC3)nc2o1 [Example 5-39, 2-chlorophenyl-5-(piperidine-1-yl)oxazolo[5,4-b]pyridine] | 0.6 | 13.2 | – |
| 2-fluorophenyl-5-(pyrrolidine-1-yl)oxazolo[5,4-b]pyridine [Example 5-34] | 8.4 | – | 8.7 |
| c1ccc(-c2nc3ccc(N4CCCC4)nc3s2)cc1 [Example 5-31, 2-phenyl-5-(pyrrolidine-1-yl)thiazolo[5,4-b]pyridine] | 1.7 | 7.3 | – |
| c1ccc(CNc2ccc3nc(-c4ccccc4)sc3n2)cc1 [Example 5-58, N-benzyl-2-phenylthiazolo[5,4-b]pyridine-5-amine] | 60.8 | 1900 | – |
| CN(Cc1ccccc1)c1ccc2nc(-c3ccc(Cl)cc3)oc2n1 [Example 5-68, N-benzyl-2-(4-chlorophenyl)-N-methyloxazolo[5,4-b]pyridine-5-amine] | 24.1 | 5.08 | – |

Further lines, with some results ahead:

| Remaining activity of MAO-B (%) (human MAO-B enzyme [1]) | IC50 (human MAO-B enzyme [2]; [3]) [µM] | Compound | IC50 (human MAO-B enzyme [2]) [µM] |
| --- | --- | --- | --- |
| 3.09 | 2 | c1ccc(-c2nc3ccc(N4CCCCC4)nc3o2)cc1 [Example 5-37, 2-phenyl-5-(piperidine-1-yl)oxazolo[5,4-b]pyridine] | – |
| 13.8 | 0.27 | Fc1cccc(-c2nc3ccc(N4CCCCC4)nc3o2)c1 [Example 5-40, 2-(3-fluorophenyl)-5-(piperidine-1-yl)oxazolo[5,4-b]pyridine] | – |
| 28.6 | 0.096 | Brc1ccc(-c2nc3ccc(N4CCCCC4)nc3o2)cc1 [Example 5-47, 2-(4-bromophenyl)-5-(piperidine-1-yl)oxazolo[5,4-b]pyridine] | – |
| 2.31 | 0.41 | c1ccc(-c2nc3ccc(N4CCCC4)nc3o2)cc1 [Example 5-30, 2-phenyl-5-(pyrrolidine-1-yl)oxazolo[5,4-b]pyridine] | – |
